Target: Human recombinant DHX9 protein (Homo sapiens (Human), UniProt Q08211)
Assay: DHX9 ATPase assay (ADP-Glo)
Assay type: biochemical
Details: for IC50: read-out: DHX9 Biochemical Inflection Point

Chain of Human recombinant DHX9 protein (Q08211 whole entry): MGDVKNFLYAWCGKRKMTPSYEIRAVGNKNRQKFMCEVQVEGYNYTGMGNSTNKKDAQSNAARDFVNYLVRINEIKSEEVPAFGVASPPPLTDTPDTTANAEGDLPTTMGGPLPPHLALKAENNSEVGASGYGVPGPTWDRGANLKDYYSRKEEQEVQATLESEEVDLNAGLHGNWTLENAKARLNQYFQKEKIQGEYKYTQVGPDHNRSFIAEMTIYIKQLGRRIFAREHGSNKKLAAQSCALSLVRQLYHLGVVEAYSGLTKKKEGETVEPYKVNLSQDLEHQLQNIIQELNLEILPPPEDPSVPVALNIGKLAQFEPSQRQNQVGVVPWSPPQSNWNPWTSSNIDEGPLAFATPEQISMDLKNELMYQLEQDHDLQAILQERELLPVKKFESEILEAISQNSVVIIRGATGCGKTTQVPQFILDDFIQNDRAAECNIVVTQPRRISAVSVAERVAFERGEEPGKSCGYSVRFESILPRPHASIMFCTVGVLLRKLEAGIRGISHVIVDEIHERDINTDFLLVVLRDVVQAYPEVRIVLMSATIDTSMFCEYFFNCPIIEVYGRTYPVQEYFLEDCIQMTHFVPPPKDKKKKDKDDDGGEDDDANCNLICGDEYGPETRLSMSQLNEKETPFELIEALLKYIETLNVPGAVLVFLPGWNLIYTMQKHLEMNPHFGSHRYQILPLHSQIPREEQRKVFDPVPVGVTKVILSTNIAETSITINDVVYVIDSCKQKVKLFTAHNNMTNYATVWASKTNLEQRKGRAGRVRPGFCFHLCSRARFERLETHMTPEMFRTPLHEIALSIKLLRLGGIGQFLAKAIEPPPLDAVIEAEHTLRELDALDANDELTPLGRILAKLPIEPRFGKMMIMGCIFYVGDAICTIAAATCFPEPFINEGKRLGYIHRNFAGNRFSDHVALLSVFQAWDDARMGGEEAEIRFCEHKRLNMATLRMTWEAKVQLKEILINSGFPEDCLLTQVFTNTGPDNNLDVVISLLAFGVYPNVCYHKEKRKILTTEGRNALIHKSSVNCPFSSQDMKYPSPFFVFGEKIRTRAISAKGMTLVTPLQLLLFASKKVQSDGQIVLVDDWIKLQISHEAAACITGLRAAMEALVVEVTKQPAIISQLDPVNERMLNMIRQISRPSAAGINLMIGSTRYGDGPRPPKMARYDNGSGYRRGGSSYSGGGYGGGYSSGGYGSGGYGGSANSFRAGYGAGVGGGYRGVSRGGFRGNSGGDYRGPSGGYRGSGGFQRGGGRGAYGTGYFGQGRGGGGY

| DHX9 Biochemical Max Inhibition | IC50 [nM] | Structure (SMILES) |
| --- | --- | --- |
| 76.2% | 46.7 | CCS(=O)(=O)Nc1cc(Cl)cc(NC(=O)c2cc(-c3ncc(C(F)(F)F)cn3)c(C)s2)c1 [Example 366] |
| 69 | 14.5 | Cc1sc(C(=O)Nc2cc(Cl)cc(NS(C)(=O)=O)c2)cc1-c1ccc(C2CN(CC(F)(F)F)C2)cn1 [Example 710] |
| 59.2% | 420 | Cc1cccnc1-c1ccc(C(=O)Nc2cc(Cl)cc(NS(C)(=O)=O)c2)s1 [Example 386] |
| 71% | 47.5 | Cc1cnc(-n2cc(C(=O)Nc3cc(Cl)cc(NS(C)(=O)=O)c3)cn2)c(OCc2cnco2)c1 [Example 261] |
| 59.5 | 40.9 | Cn1cc(C(=O)Nc2cc(Cl)cc(NS(C)(=O)=O)c2)cc1-c1ncc(OC2CN(C(=O)C3CC3)C2)cc1F [Example 697] |
| 78.1 | 12.5 | Cn1cc(C(=O)Nc2cc(Cl)cc(NS(C)(=O)=O)c2)cc1-c1ccc(C2CCOCC2)cn1 [Example 704] |
| 64.6% | 185 | CS(=O)(=O)Nc1cc(Cl)cc(NC(=O)c2cnn(C3CC4CCC(C3)O4)c2)c1 (stereo not shown) [Example 250] |
| 63.9% | 591 | CS(=O)(=O)Nc1cc(Cl)cc(NC(=O)c2cc3c(F)ccc(F)c3s2)c1 [Example 325] |
| 72.6 | 25.2 | Cc1sc(C(=O)Nc2cc(Cl)cc(NS(C)(=O)=O)c2)cc1-c1ncc(N(C)S(C)(=O)=O)cn1 [Example 720] |
| 44.5% | 390 | CS(=O)(=O)Nc1cc(Cl)cc(NC(=O)c2nc(-c3ccccc3)c[nH]2)c1 [Example 9] |
| 66.1 | 68 | Cc1cc(C(=O)Nc2cc(Cl)cc(NS(C)(=O)=O)c2)cn1-c1ncc(OC(C)(C)C)cc1F [Example 662] |
| 59.7% | 144 | COc1cc2cc(C(=O)Nc3cc(Cl)cc(NS(C)(=O)=O)c3)sc2cc1OC [Example 291] |
| 61.1% | 22.1 | CC1CN(c2ccc(-n3cc(C(=O)Nc4cc(Cl)cc(NS(C)(=O)=O)c4)cn3)nc2)CCO1 (stereo not shown) [Example 92] |
| 57.4% | 9.6 | CS(=O)(=O)Nc1cc(Cl)cc(NC(=O)c2cc(CN)n(-c3ccccn3)c2)c1 [Example 181] |
| 74.1% | 44.2 | CS(=O)(=O)Nc1cc(Cl)cc(NC(=O)c2cc(-c3ccc(N4CC5(COC5)C4)cn3)n(CC(F)(F)F)c2)c1 [Example 278] |
| 71.8 | 26 | Cc1sc(C(=O)Nc2cc(Cl)cc(NS(C)(=O)=O)c2)cc1-c1ncc(F)cc1-c1ccc(=O)n(C)c1 [Example 606] |
| 66.9 | 5.8 | CCOc1cnn(-c2cc(C(=O)Nc3cc(Cl)cc(NS(C)(=O)=O)c3)sc2C)c1 [Example 438] |
| 88.7 | 19.2 | Cn1cc(C(=O)Nc2cc(Cl)cc(NS(C)(=O)=O)c2)cc1-c1ncc(N2CC(F)(F)C2)cc1F [Example 599] |
| 75.4 | 7.2 | Cc1ncccc1-c1cc(F)cnc1-c1cc(C(=O)Nc2cc(Cl)cc(NS(C)(=O)=O)c2)sc1C [Example 608] |
| 57.2% | 4020 | COc1cccc2cc(C(=O)Nc3cc(Cl)cc(NS(C)(=O)=O)c3)sc12 [Example 303] |
| 50.6 | 8310 | Cc1cccnc1-c1csc(C(=O)Nc2cc(Cl)cc(NS(C)(=O)=O)c2)c1C [Example 684] |

The remaining lines, values behind:

| Structure (SMILES) | DHX9 Biochemical Max Inhibition | IC50 [nM] |
| --- | --- | --- |
| COC(=O)N1CCN(c2ccc(-c3cc(C(=O)Nc4cc(Cl)cc(NS(C)(=O)=O)c4)cn3C)nc2)CC1 [Example 596] | 72.2 | 18.1 |
| COC(=O)N1CCN(c2cnc(-c3cc(C(=O)Nc4cc(Cl)cc(NS(C)(=O)=O)c4)sc3C)c(C)c2)CC1 [Example 601] | 72.2 | 21.2 |
| CS(=O)(=O)Nc1cc(Cl)cc(NC(=O)c2cc(-c3cccc(F)c3)cs2)c1 [Example 108] | 59.8% | 210 |
| CS(=O)(=O)Nc1cc(Cl)cc(NC(=O)c2cc(-c3ncc(N4CC(C(F)(F)F)C4)cn3)n(CC(F)F)c2)c1 [Example 508] | 67.1 | 96.5 |
| Cc1cc(C(=O)Nc2cc(Cl)cc(NS(C)(=O)=O)c2)cn1-c1ncc(N2CCOC2=O)cn1 [Example 417] | 70.1 | 33.1 |
| Cc1sc(C(=O)Nc2cc(Cl)cc(NS(C)(=O)=O)c2)cc1-c1ccc(N2CCN(C(=O)C3CC3)CC2)cn1 [Example 590, N-(3-chloro-5-methanesulfonamidophenyl)-4-[5-(4-cyclopropanecarbonylpiperazin-1-yl)pyridin-2-yl]-5-methylthiophene-2-carboxamide] | 74.8 | 5.9 |
| CS(=O)(=O)Nc1cc(Cl)cc(NC(=O)c2cnn([C@H]3CCC[C@H](O)C3)c2)c1 (single isomer, unassigned) [Example 152a] | 63.2% | 138 |
| Cn1cc(C(=O)Nc2cc(Cl)cc(NS(C)(=O)=O)c2)cc1-c1ccccc1/C=C/c1cncc(F)c1 [Example 727] | 55.3 | 9030 |
| CS(=O)(=O)Nc1cc(Cl)cc(NC(=O)c2cnn(-c3c(F)cccc3OCc3cccc(F)c3)c2)c1 [Example 211] | 65.4% | 62.4 |
| CS(=O)(=O)Nc1cc(Cl)cc(NC(=O)c2cnn([C@H]3CCC[C@H]3Oc3ccccc3)c2)c1 (single isomer, unassigned) [Example 259] | 69.2% | – |
| Cc1cc(F)cnc1-c1cc(C(=O)Nc2cc(Cl)cc(NS(C)(=O)=O)c2)cn1C [Example 545] | 64.7 | 74.2 |
| CCS(=O)(=O)Nc1cc(Cl)cc(NC(=O)c2cc(-c3ncc(F)cc3OCc3nccs3)c(C)s2)c1 [Example 622] | 62.9 | 23 |
| CS(=O)(=O)Nc1cc(Br)cc(NC(=O)c2cnn(-c3cc(C#N)ccn3)c2)c1 [Example 38] | 44.7% | 65.5 |
| Cc1cn2cc(C(=O)Nc3cc(Cl)cc(NS(C)(=O)=O)c3)cc2c(C)n1 [Example 322] | 65.6% | 215 |
| Cc1cc(C(=O)Nc2cc(Cl)cc(NS(C)(=O)=O)c2)cn1-c1ccc(N2CC3CC3C2)cn1 (stereo not shown) [Example 411] | 74.2 | 41.6 |
| CS(=O)(=O)Nc1cc(Cl)cc(NC(=O)c2cccc(-c3ccncc3)c2)c1 [Example 14] | 59.6% | 353 |
| CS(=O)(=O)Nc1cc(Cl)cc(NC(=O)c2cc(-c3ncc(N4CC(F)(F)C4)cc3F)cs2)c1 [Example 488] | 61.1 | 67.9 |
| Cn1cc(C(=O)Nc2cc(Cl)cc(NS(C)(=O)=O)c2)cc1-c1ncc(N2CC3(C2)CC(F)(F)C3)cn1 [Example 492] | 62.3 | 6.6 |
| CS(=O)(=O)Nc1cc(Cl)cc(NC(=O)c2cnn(-c3ncccc3-c3cncnc3)c2)c1 [Example 387] | 58.2% | 186 |

Reference: patent US20240316047A1, “INHIBITORS OF RNA HELICASE DHX9 AND USES THEREOF” (ACCENT THERAPEUTICS, INC., priority 2022, published 2024)
